Values quoted from earlier work as cited in patent US20240197589A1, “ORAL CARE COMPOSITIONS COMPRISING GERANYLGERANIOL AND METHODS OF USE THEREOF” (AMERICAN RIVER NUTRITION, LLC, priority 2022, published 2024).

Columns and labels:
Staphylococcus aureus = conditions: S. aureus
[1] = animals treated with both bisphosphonates and GG
[2] = system: Mycobacterium tuberculosis; conditions: M. tuberculosis, at 6.25 ug/ml
[3] = in combination with amoxicillin, 200 mg two times per day for 5 days, following third molar removal

Molecule: CC(C)=CCC/C(C)=C/CC/C(C)=C/CC/C(C)=C/CO [GG, geranylgeraniol]
- concentration for optimum bactericidal effect (Staphylococcus aureus): 0.15 to 1.25 µg/mL
- decrease of viable bacterial cell count (Staphylococcus aureus; 0.15-1.25 ug/ml, within two hours): decreased viable bacterial cell count by a factor of two
- improved gum and extracted socket healing [1]: 45-67%
- inhibition of the bacterium [2]: 96%

Molecule: Bromelain
- dilution effective against Streptococcus mutans (Streptococcus mutans): 2 mg/mL
- dilution exerting antibacterial effects against Porphyromonas gingivalis (Porphyromonas gingivalis): 4.15 mg/mL
- study subjects with reduced swelling and pain [3]: up to 70%
